Activity calls are given as the source filed them. The rule behind the calls is not given here.

In general, EC50 refers to the midpoint of the concentration-response curve.

In data set [1] the test system is Rattus norvegicus. The experiment in a line: Cardioprotection activity in ischemia/reperfusion-induced in Sprague-Dawley rat hindquarters assessed as reduction in MPO level at 5 mg/kg, bolus dose administered 5 mins prior to reperfusion by spectrophotometric analysis relative to control. Type of data set: functional, organism-based. Also on record: dose 5 mg/kg.

A short description of data set [2]: Drug uptake in rat Con8 cells assessed as compound level in cell lysate under hypoxic condition at 10^-5 M after 3 hrs by HPLC analysis. The class given is ADME, cell-based. To be noted: con8, 3 h, 10 µM.
Data set [3] relates to Rattus norvegicus. The experiment in a line: Cardioprotection activity in ischemia/reperfusion-induced Sprague-Dawley rat hindquarters assessed as reduction in circulating LDH level at 5 mg/kg, bolus dose administered 5 mins prior to reperfusion measured 3 hrs after reperfusion by UV-VIS spectrophotometry. Type of data set: functional, organism-based. Further details: dose 5 mg/kg.

The subject of data set [4] is Aorta. Description: Vasorelaxant activity in phenylephrine and KPSS-precontracted Sprague-Dawley rat thoracic aortic rings at 10^-10 to 10^-4 M measured after 20 mins. The class given is functional, tissue-based.
Data set [5] concerns Aorta. Description: Vasorelaxant activity in Sprague-Dawley rat thoracic aortic rings assessed as inhibition of phenylephrine-induced contraction at 10^-5 M after 20 mins. The class given is functional, tissue-based.
Data set [6] can be described thus: Drug uptake in rat Con8 cells assessed as compound level in supernatant under normoxic condition at 10^-5 M after 3 hrs by HPLC analysis. The settings on record: con8, 3 h, 10 µM. The class given is ADME, cell-based.
Data set [7] concerns Rattus norvegicus. Description: Cardioprotection activity in ischemia/reperfusion-induced Sprague-Dawley rat hindquarters assessed as reduction in circulating LDH level at 5 mg/kg, bolus dose administered 5 mins prior to reperfusion measured 2 hrs after reperfusion by UV-VIS spectrophotometry. Further details: dose 5 mg/kg. The class given is functional, organism-based.
Data set [8] in a line: Drug uptake in rat Con8 cells assessed as compound level in supernatant under hypoxic condition at 10^-5 M after 3 hrs by HPLC analysis. The class given is ADME, cell-based. To be noted: con8, 3 h, 10 µM.
Data set [9] is described as follows: Drug uptake in rat Con8 cells assessed as compound level in cell lysate under normoxic condition at 10^-5 M after 3 hrs by HPLC analysis. To be noted: con8, 3 h, 10 µM. The class given is ADME, cell-based.
Data set [10] relates to Rattus norvegicus. Description: Cardioprotection activity in ischemia/reperfusion-induced in Sprague-Dawley rat hindquarters assessed as reduction in MPO level at 8.6 mg/kg, bolus dose administered 5 mins prior to reperfusion by spectrophotometry relative to control. The class given is functional, organism-based. Also on record: dose 8.6 mg/kg.
Data set [11] has as its system Aorta. The experiment in a line: Antioxidant activity in Sprague-Dawley rat thoracic aortic rings assessed as inhibition of NADPH-activated superoxide formation at 10^-6 to 10^-4 M by lucigenin-enhanced chemiluminescence assay. Type of data set: functional, tissue-based.
The test system of data set [12] is Rattus norvegicus. Description: Cardioprotection activity in ischemia/reperfusion-induced Sprague-Dawley rat hindquarters assessed as reduction in circulating LDH level at 8.6 mg/kg, bolus dose administered 5 mins prior to reperfusion measured 30 mins to 3 hrs after reperfusion by UV-VIS spectrophotometry. Also on record: dose 8.6 mg/kg. Type of data set: functional, organism-based.

Data set [13] has as its system Aorta. Description: Inhibition of acetylcholine-induced relaxation Sprague-Dawley rat thoracic aortic rings at 10^-5 M after 20 mins in presence of superoxide generator pyrogallol. The class given is functional. Also on record: scale not given: the % may be the effect or the level left.

As to `O=c1c(O)c(-c2ccc(O)c(O)c2)oc2ccccc12`, in data set [1], the result was inactive. Also, the Drug uptake result in [2], in data set [6], in data set [8] and in data set [9] was “Active” throughout. The outcome in data set [3], in data set [5] and in data set [7] was Active. Further, it took 4.68 µM to reach a half-maximal effect in [4] (EC50).
Regarding `O=c1c(O)c(-c2ccc(O)c(O)c2)oc2ccc(-n3cc(Cn4ccnc4[N+](=O)[O-])nn3)cc12`, the result in data set [10], in [11] and in [12] was Active. In addition, the Drug uptake entry in data set [2], in data set [6], in data set [8] and in data set [9] was “Active” in each case. Moreover, the outcome in data set [4] and in [5] was inactive. In addition, the Activity in [13] came out at 50%.

The record behind these values is ChEMBL document CHEMBL1817596, “Synthesis of a hypoxia-targeted conjugate of the cardioprotective agent 3',4'-dihydroxyflavonol and evaluation of its ability to reduce ischaemia/reperfusion injury” (Bioorg Med Chem Lett, 2011).
